Assay results taken from publication PMC9701171 (Journal of pharmaceutical and biomedical analysis, 2022).
Where two headings read alike, the source gives them in different places.

How the values were obtained:
HbA [1] = target: T1, HbA (Homo sapiens, UniProt P69905); test: Steady-state concentration-dependent HbA binding; details: for n (Hill coefficient): SS concentration-dependency; for fold enhancement of binding affinity (improvement of KD) relative to 5-HMF: compared to 5-HMF
HbA [2] = target: T1, HbA; test: Time-dependent HbA binding kinetics; details: for time to achieve steady state (SS): 0.2 mM HbA, pilot observations; for time to equilibration with HbA: low [AEH]0, assuming first-order conditions
HbS = details: cited from earlier work
HbA [3] = target: T1, HbA; details: cited from earlier work
[4] = Reference Method, sigmoidal Bmax model, PE (COV)

T1 sequence (P69905 2-142 limits assumed): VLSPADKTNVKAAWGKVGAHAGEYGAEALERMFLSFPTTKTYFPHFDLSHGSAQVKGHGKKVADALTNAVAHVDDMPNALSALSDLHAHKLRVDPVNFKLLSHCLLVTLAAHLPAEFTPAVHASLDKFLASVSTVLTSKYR
T1 sequence (P68871 2-147 partner limits assumed): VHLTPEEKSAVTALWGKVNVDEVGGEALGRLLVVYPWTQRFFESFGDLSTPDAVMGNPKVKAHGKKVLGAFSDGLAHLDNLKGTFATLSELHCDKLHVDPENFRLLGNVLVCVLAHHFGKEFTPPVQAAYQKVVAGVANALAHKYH

| Kd (HbA [1]) [µM] | Kd (HbA [2]) [µM] | Compound | n (Hill coefficient) (HbA [1]; sigmoidal Bmax model, PE (COV)) | time to achieve steady state (SS) (HbA [2]) [s] | HbS-AEH adduct (Hb modification) (HbS) [%] | time to equilibration with HbA (HbA [2]) | fold enhancement of binding affinity (improvement of KD) relative to 5-HMF (HbA [1]) | also measured |
| --- | --- | --- | --- | --- | --- | --- | --- | --- |
| 1700 | 4300 | COc1cc(C=O)ccc1O [Vanillin, 4-Hydroxy-5-methoxybenzaldehyde] | – | – | – | – | – | HbA modification (HbA [1]; 5.8 mM, initial pilot study): < 100% |
| 190 | 120 | O=Cc1ccc(C=O)o1 [2,5-DMF, 2,5-Furandicarboxaldehyde] | 1.7(21%) | – | – | – | 2 fold | koff (HbA [2]; read-out: koff (first-order dissociation rate constant)): 1.81e-05 s⁻¹ |

The remaining lines, values behind:

| Compound | Kd (HbA [1]) [µM] | Kd (HbA [2]) [µM] | n (Hill coefficient) (HbA [1]; sigmoidal Bmax model, PE (COV)) | time to achieve steady state (SS) (HbA [2]) [s] | HbS-AEH adduct (Hb modification) (HbS) [%] | time to equilibration with HbA (HbA [2]) | fold enhancement of binding affinity (improvement of KD) relative to 5-HMF (HbA [1]) | also measured |
| --- | --- | --- | --- | --- | --- | --- | --- | --- |
| CC(C)n1nccc1-c1ncccc1COc1cccc(O)c1C=O [GBT-440] | 110 | – | 1.6 (16%) | ≤ 120 | – | – | – | HbA modified to the HbA-AEH adduct at saturation (HbA [1]; steady state, HbA solution): about 50% |
| COc1ccc(OCc2ccccn2)c(C=O)c1 [INN-310] | – | – | 2.4 (20%) | – | 100 | – | – | – |
| O=Cc1ccc(CO)o1 [5-HMF, 5-Hydroxymethyl-2-furfural] | – | – | 1.1 (10%) | – | – | 12 to 20 h | – | Bmax (HbA [1]; Universal Method, sigmoidal Bmax model, PE (COV)): 0.20 (6%); time to approach equilibrium (HbA [3]; 5-HMF in the presence of HbA): 24 to 30 h; Bmax (HbA [3]; [4]): 0.092 (10%); Bmax / HbA0 (HbA [3]; [4]): 0.74 (10%); Kd (HbA [3]; [4]): 280 µM; Kd (HbA [3]; read-out: binding affinity, 5-HMF in the presence of HbA): 250 µM |
| O=Cc1c(O)cccc1OCc1cccc(CO)n1 [VZHE-039] | – | – | 1.9 (34%) | < 360 | 100 | less than half an hour | less than 5 fold | fold shorter t1/2^eq relative to 5-HMF (HbA [2]; current experimental conditions): more than 50 fold |
